Assays:
Details in all cases: main component drawn
[1] = system: B. subtilis 168; assay: fitness (endpoint OD595 vs no drug) (fraction); higher = more growth
Outline: (§1)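 Volumes were 30 µl per well, or 55 µl for S. pneumoniae, in 384-well plates inoculated at OD595 0.01. Media were TSB, LB Lennox or CY at 37 °C, and OD595 was read every 30 min for 14 h with first-reading background subtraction. Fitness is the ratio of optical density at stationary-phase entry to the robust mean of no-drug controls. That ratio is capped at 1.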

[2] = system: S. aureus Newman; assay: as above
Outline: as §1

[3] = system: B. subtilis 168; assay: Bliss interaction score (quartile over a dose matrix) (fitness difference); higher = more antagonism (negative = synergy)
Outline: (§2)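 Fitness was defined as normalised growth: OD595 at the start of stationary phase divided by the plate's robust no-drug mean and capped at 1. Single-drug fitness was inferred from combination measurements. The Bliss score is observed fitness minus the product of the single-drug values, summarised by quartiles across technical, biological and donor/recipient replicates.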

[4] = system: S. aureus DSM 20231; assay: as above
Outline: as §2

[5] = system: S. aureus Newman; assay: as above
Outline: as §2

[6] = system: S. pneumoniae D39V; assay: as above
Outline: as §2
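For Bliss interaction score (quartile over a dose matrix) in this document: first quartile when negative (synergy) and third quartile when positive (antagonism).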

CC[C@H](C)[C@H](N)C1=N[C@H](C(=O)N[C@@H](CC(C)C)C(=O)N[C@H](CCC(=O)O)C(=O)N[C@H](C(=O)N[C@H]2CCCCNC(=O)[C@H](CC(N)=O)NC(=O)[C@@H](CC(=O)O)NC(=O)[C@H](Cc3cnc[nH]3)NC(=O)[C@@H](Cc3ccccc3)NC(=O)[C@H]([C@@H](C)CC)NC(=O)[C@@H](CCCN)NC2=O)[C@@H](C)CC)CS1 [Bacitracin] + CO/N=C(\C(=O)N[C@@H]1C(=O)N2C(C(=O)O)=C(COC(N)=O)CS[C@H]12)c1ccco1 [Cefuroxime]
fitness, [1]
Details	first compound 37.5 µg/mL	first compound 75 µg/mL	first compound 150 µg/mL
partner 0.04875 µg/mL	0.691	0.612	–
partner 0.0975 µg/mL	0.629	0.529	0.275
partner 0.195 µg/mL	0.338	0.334	0.0599

fitness, one replicate
Details	partner 0.04875 µg/mL	partner 0.0975 µg/mL	partner 0.195 µg/mL	partner 0.39 µg/mL	partner 0.78 µg/mL	partner 1.562 µg/mL	partner 3.125 µg/mL	partner 6.25 µg/mL
[1], first compound 37.5 µg/mL	–	–	–	0.293	0.266	0.419	0.351	0.269
[1], first compound 75 µg/mL	–	–	–	0.089	0.0839	0.352	0.323	0.257
[1], first compound 150 µg/mL	–	–	–	0.0217	0.0185	0.306	0.238	0.155
[2], first compound 18.75 µg/mL	0.634	0.599	0.287	–	–	–	–	–
[2], first compound 37.5 µg/mL	0.0709	0.0498	0.025	–	–	–	–	–
[2], first compound 75 µg/mL	0.0097	0.0027	0.0172	–	–	–	–	–

Details	Bliss interaction score
[3]	-0.0903
[4]	-0.188
[5]	-0.0659
[6]	0.0554

CC[C@H](C)[C@H](N)C1=N[C@H](C(=O)N[C@@H](CC(C)C)C(=O)N[C@H](CCC(=O)O)C(=O)N[C@H](C(=O)N[C@H]2CCCCNC(=O)[C@H](CC(N)=O)NC(=O)[C@@H](CC(=O)O)NC(=O)[C@H](Cc3cnc[nH]3)NC(=O)[C@@H](Cc3ccccc3)NC(=O)[C@H]([C@@H](C)CC)NC(=O)[C@@H](CCCN)NC2=O)[C@@H](C)CC)CS1 [Bacitracin] + CCCCCCCCCC(=O)N[C@@H]1[C@H]([C@@H]([C@H](O[C@H]1OC2=C3C=C4C=C2OC5=C(C=C(C=C5)[C@H]([C@H]6C(=O)N[C@@H](C7=C(C(=CC(=C7)O)OC8[C@H]([C@H]([C@@H]([C@H](O8)CO)O)O)O)C9=C(C=CC(=C9)[C@H](C(=O)N6)NC(=O)[C@@H]4NC(=O)[C@@H]1C2=CC(=CC(=C2)OC2=C(C=CC(=C2)[C@H](C(=O)N[C@H](CC2=CC(=C(O3)C=C2)Cl)C(=O)N1)N)O)O)O)C(=O)O)O[C@H]1[C@@H]([C@H]([C@@H]([C@H](O1)CO)O)O)NC(=O)C)Cl)CO)O)O [Teicoplanin]
fitness, [2]
Details	first compound 18.75 µg/mL	first compound 37.5 µg/mL	first compound 75 µg/mL
partner 0.1562 µg/mL	0.777	0.249	0.0017
partner 0.3125 µg/mL	0.77	0.202	0.0042
partner 0.625 µg/mL	0.683	0.206	0

fitness, [2], one replicate
Details	first compound 18.75 µg/mL	first compound 37.5 µg/mL	first compound 75 µg/mL
partner 0.62 µg/mL	0.543	0.0346	0.0093
partner 1.24 µg/mL	0.424	0.0167	0.0003
partner 2.48 µg/mL	0.0859	0.0387	0.0349

Details	Bliss interaction score
[3]	-0.119
[4]	-0.0716
[5]	0.0565
[6]	-0.0678

CC[C@H](C)[C@H](N)C1=N[C@H](C(=O)N[C@@H](CC(C)C)C(=O)N[C@H](CCC(=O)O)C(=O)N[C@H](C(=O)N[C@H]2CCCCNC(=O)[C@H](CC(N)=O)NC(=O)[C@@H](CC(=O)O)NC(=O)[C@H](Cc3cnc[nH]3)NC(=O)[C@@H](Cc3ccccc3)NC(=O)[C@H]([C@@H](C)CC)NC(=O)[C@@H](CCCN)NC2=O)[C@@H](C)CC)CS1 [Bacitracin] + CN[C@H](CC(C)C)C(=O)N[C@H]1C(=O)N[C@@H](CC(N)=O)C(=O)N[C@H]2C(=O)N[C@H]3C(=O)N[C@H](C(=O)N[C@H](C(=O)O)c4cc(O)cc(O)c4-c4cc3ccc4O)[C@H](O)c3ccc(c(Cl)c3)Oc3cc2cc(c3O[C@@H]2O[C@H](CO)[C@@H](O)[C@H](O)[C@H]2O[C@H]2C[C@](C)(N)[C@H](O)[C@H](C)O2)Oc2ccc(cc2Cl)[C@H]1O [Vancomycin]
fitness, [2]
Details	first compound 18.75 µg/mL	first compound 37.5 µg/mL	first compound 75 µg/mL
partner 0.1875 µg/mL	0.735	0.183	0.0338
partner 0.375 µg/mL	0.723	0.135	0.0309
partner 0.75 µg/mL	0.712	0.159	0.0262

Details	Bliss interaction score
[3]	0.0708
[4]	0.0843
[5]	-0.0422
[6]	-0.0651

CC[C@H](C)[C@H](N)C1=N[C@H](C(=O)N[C@@H](CC(C)C)C(=O)N[C@H](CCC(=O)O)C(=O)N[C@H](C(=O)N[C@H]2CCCCNC(=O)[C@H](CC(N)=O)NC(=O)[C@@H](CC(=O)O)NC(=O)[C@H](Cc3cnc[nH]3)NC(=O)[C@@H](Cc3ccccc3)NC(=O)[C@H]([C@@H](C)CC)NC(=O)[C@@H](CCCN)NC2=O)[C@@H](C)CC)CS1 [Bacitracin] + Cn1nnc(-c2ccc(-c3ccc(N4C[C@H](CO)OC4=O)cc3F)cn2)n1 [Tedizolid]
fitness, [2]
Details	first compound 18.75 µg/mL	first compound 37.5 µg/mL	first compound 75 µg/mL
partner 0.0625 µg/mL	0.646	0.0796	0.0039
partner 0.125 µg/mL	–	0.0327	0.0056
partner 0.25 µg/mL	0.0222	0.0202	0.0046

Details	Bliss interaction score
[3]	-0.0855
[4]	-0.0663
[5]	-0.222
[6]	0.12

CC[C@H](C)[C@H](N)C1=N[C@H](C(=O)N[C@@H](CC(C)C)C(=O)N[C@H](CCC(=O)O)C(=O)N[C@H](C(=O)N[C@H]2CCCCNC(=O)[C@H](CC(N)=O)NC(=O)[C@@H](CC(=O)O)NC(=O)[C@H](Cc3cnc[nH]3)NC(=O)[C@@H](Cc3ccccc3)NC(=O)[C@H]([C@@H](C)CC)NC(=O)[C@@H](CCCN)NC2=O)[C@@H](C)CC)CS1 [Bacitracin] + C/C(=C\C(=O)OCCCCCCCCC(=O)O)C[C@@H]1OC[C@H](C[C@@H]2O[C@H]2[C@@H](C)[C@H](C)O)[C@@H](O)[C@H]1O [Pseudomonic acid]
fitness, [2], one replicate
Details	first compound 18.75 µg/mL	first compound 37.5 µg/mL	first compound 75 µg/mL
partner 0.0313 µg/mL	0.0438	0.029	0.0257
partner 0.0625 µg/mL	0.0196	0.0219	0.0077
partner 0.125 µg/mL	0.0416	0.0193	0.0115

Details	Bliss interaction score
[3]	-0.0784
[4]	0.0189
[5]	0.0307
[6]	-0.0953

CN[C@@H]1[C@H](O[C@H]2[C@H](O[C@H]3[C@H](O)[C@@H](O)[C@H](N=C(N)N)[C@@H](O)[C@@H]3N=C(N)N)O[C@@H](C)[C@]2(O)C=O)O[C@@H](CO)[C@H](O)[C@H]1O [Streptomycin] + CCCCCCCCCC(=O)N[C@@H]1[C@H]([C@@H]([C@H](O[C@H]1OC2=C3C=C4C=C2OC5=C(C=C(C=C5)[C@H]([C@H]6C(=O)N[C@@H](C7=C(C(=CC(=C7)O)OC8[C@H]([C@H]([C@@H]([C@H](O8)CO)O)O)O)C9=C(C=CC(=C9)[C@H](C(=O)N6)NC(=O)[C@@H]4NC(=O)[C@@H]1C2=CC(=CC(=C2)OC2=C(C=CC(=C2)[C@H](C(=O)N[C@H](CC2=CC(=C(O3)C=C2)Cl)C(=O)N1)N)O)O)O)C(=O)O)O[C@H]1[C@@H]([C@H]([C@@H]([C@H](O1)CO)O)O)NC(=O)C)Cl)CO)O)O [Teicoplanin]
fitness, [2]
Details	first compound 1 µg/mL	first compound 2 µg/mL	first compound 4 µg/mL
partner 0.1562 µg/mL	≥ 1	≥ 1	–
partner 0.3125 µg/mL	≥ 1	0.932	–
partner 0.625 µg/mL	0.917	0.803	0.344

fitness, [2], one replicate
Details	first compound 2 µg/mL	first compound 4 µg/mL	first compound 8 µg/mL
partner 0.62 µg/mL	0.737	0.574	0.0838
partner 1.24 µg/mL	0.527	0.0741	0.0255
partner 2.48 µg/mL	0.0707	0.0385	0.103

Details	Bliss interaction score
[3]	-0.0977
[4]	-0.227
[5]	-0.118
[6]	-0.0928

CC[C@H](C)[C@H](N)C1=N[C@H](C(=O)N[C@@H](CC(C)C)C(=O)N[C@H](CCC(=O)O)C(=O)N[C@H](C(=O)N[C@H]2CCCCNC(=O)[C@H](CC(N)=O)NC(=O)[C@@H](CC(=O)O)NC(=O)[C@H](Cc3cnc[nH]3)NC(=O)[C@@H](Cc3ccccc3)NC(=O)[C@H]([C@@H](C)CC)NC(=O)[C@@H](CCCN)NC2=O)[C@@H](C)CC)CS1 [Bacitracin] + O=C(N[C@H](CO)[C@H](O)c1ccc([N+](=O)[O-])cc1)C(Cl)Cl [Chloramphenicol]
fitness, [2]
Details	first compound 18.75 µg/mL	first compound 37.5 µg/mL	first compound 75 µg/mL
partner 0.75 µg/mL	0.589	0.182	0.0093
partner 1.5 µg/mL	0.38	0.0293	0.0143
partner 3 µg/mL	0.0184	0.0086	0.0146

Details	Bliss interaction score
[3]	-0.106
[4]	-0.0262
[5]	-0.0971
[6]	-0.0459

— the supplement of paper PMC10627819
